Results on 9 compounds are retold here after patent publication US20070191393A1, “Macrocyclic anilinopyrimidines with substituted sulphoximine as selective inhibitors of cell cycle kinases” (priority 2006, published 2007).

Type in all cases: biochemical
One assay addresses T1, Chk1 (Homo sapiens, UniProt O14757).
T1 construct: made in house; host or cells: Sf9 insect cells
T1 sequence (O14757 1-476): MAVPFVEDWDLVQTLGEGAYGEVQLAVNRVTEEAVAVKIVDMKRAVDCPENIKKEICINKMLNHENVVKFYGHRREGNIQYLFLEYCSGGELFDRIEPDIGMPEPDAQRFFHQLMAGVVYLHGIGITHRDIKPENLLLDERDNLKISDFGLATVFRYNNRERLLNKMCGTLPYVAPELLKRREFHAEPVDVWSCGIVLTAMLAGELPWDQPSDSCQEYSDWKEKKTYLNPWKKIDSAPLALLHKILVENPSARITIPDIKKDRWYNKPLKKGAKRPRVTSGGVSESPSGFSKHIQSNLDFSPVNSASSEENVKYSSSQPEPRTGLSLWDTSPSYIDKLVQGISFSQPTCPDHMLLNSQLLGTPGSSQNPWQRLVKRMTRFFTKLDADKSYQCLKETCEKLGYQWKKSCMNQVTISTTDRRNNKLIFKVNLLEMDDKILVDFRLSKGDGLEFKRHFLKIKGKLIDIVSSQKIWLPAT
Nature of the assay: Chk1 kinase assay. The conditions noted are these: 10 μM ATP, 22° C., 60 min. How it is done:
Recombinant Chk1 protein was expressed in Sf9 insect cells and then purified. The kinase substrate used was the biotinylated peptide having the amino acid sequence biotin-ALKLVRTPSFVITAK, which was purchased from Biosynthan GmbH in Berlin.
Chk1 [0.11 μg/ml in the test mixture, test volume 5 μl] was incubated in the presence of various concentrations of test substances (0 μM, and 10 measurement points within the range 0.001-20 μM in duplicate) in assay buffer [50 mM HEPES pH 7.5, 10 mM MgCl2, […], 0.1 mM Na ortho-vanadate, 1.0 mM dithiothreitol, 1 tablet/2.5 ml complete protease inhibitor (from Roche), 10 μM ATP, 1.0 μM substrate peptide biotin-ALKLVRTPSFVITAK, 1.0% dimethyl sulphoxide] at 22° C. for 60 min. The reaction was stopped by adding 5 μl of an EDTA/detection solution [100 mM EDTA, 800 mM potassium fluoride, 0.2% BSA, 0.2 μM streptavidin-XLent (from CisBio), 9.6 nM anti-phospho-Akt antibody (from Cell Signalling Technology), 4 nM protein-A-Eu(K) (from CisBio)]. The fluorescence emission at 620 nm and 665 nm after excitation with light of the wavelength 350 nm was measured in a Rubystar HTRF instrument from BMG Labsystems.
The measured data (ratio of emission 665 divided by emission 620 multiplied by 10 000) were normalized to 0% inhibition (enzyme reaction without inhibitor) and 100% inhibition (all assay components apart from enzyme). The IC50 values were determined by means of a 4-parameter fit using the company's own software.

The next assay addresses T2, Aurora-C (Homo sapiens, UniProt Q9UQB9).
T2 construct: made in house; host or cells: HEK293 (transiently transfected)
T2 sequence (Q9UQB9 1-309): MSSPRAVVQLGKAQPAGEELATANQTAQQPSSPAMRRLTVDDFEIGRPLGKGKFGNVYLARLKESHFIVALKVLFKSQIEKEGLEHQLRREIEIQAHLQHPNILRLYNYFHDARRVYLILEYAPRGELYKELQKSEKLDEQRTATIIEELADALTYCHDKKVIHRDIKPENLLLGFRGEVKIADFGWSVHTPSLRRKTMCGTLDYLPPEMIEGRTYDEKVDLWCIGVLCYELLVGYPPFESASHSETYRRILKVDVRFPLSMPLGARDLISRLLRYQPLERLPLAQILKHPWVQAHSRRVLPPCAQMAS
The experiment in a line: Aurora-C kinase assay. Particulars: 3 μM ATP, 22° C., 90 min. As for the experimental part:
Recombinant Aurora-C protein was expressed in transiently transfected HEK293 cells and then purified. The kinase substrate used was the biotinylated peptide having the amino acid sequence biotin-FMRLRRLSTKYRT, which was purchased from Jerini A G in Berlin.
Aurora-C [5 nM in the test mixture, test volume 5 μl] was incubated in the presence of various concentrations of test substances (0 μM and 10 measurement points within the range 0.001-20 μM in duplicate) in assay buffer [25 mM HEPES pH 7.4, 0.5 mM MnCl2, 0.1 mM Na ortho-vanadate, 2.0 mM dithiothreitol, 0.05% bovine serum albumin (BSA), 0.01% Triton X-100, 3 μM adenosine trisphosphate (ATP), 0.67 nCi/μl gama-P33-ATP, 2.0 μM substrate peptide biotin-FMRLRRLSTKYRT, 1.0% dimethyl sulphoxide] at 22° C. for 90 min. The reaction was stopped by adding 12.5 μl of an EDTA/detection solution [16 mM EDTA, 40 mM ATP, 0.08% Triton X-100, 4 mg/ml PVT streptavidin SPA beads (from Amersham)]. After incubation for 10 minutes, the SPA beads were pelleted by centrifugation at 1000×G for 10 minutes. Measurement took place in a PerkinElmer Topcount scintillation counter. The measured data were normalized to 0% inhibition (enzyme reaction without inhibitor) and 100% inhibition (enzyme reaction in the presence of 0.1 μM staurosporine (from Sigma)). The IC50 values were determined by means of a 4-parameter fit using the company's own software.

A further assay addresses T3, CDK2/CycE (Homo sapiens, UniProt P24941).
T3 construct: GST; purchased ProQinase GmbH, Freiburg; host or cells: baculovirus-infected Sf9 insect cells
The experiment in a line: CDK2/CycE kinase assay. The conditions noted are these: 0.5 μM ATP, 22° C., 10 min. How it is done:
Recombinant CDK2- and CycE-GST fusion proteins, purified from baculovirus-infected insect cells (Sf9), were purchased from ProQinase GmbH, Freiburg. The histone IIIS used as kinase substrate was purchased from Sigma. CDK2/CycE (50 ng/measurement point) was incubated in the presence of various concentrations of test substances (0 μM, and within the range 0.01-100 μM) in assay buffer [50 mM Tris/HCl pH 8.0, 10 mM MgCl2, 0.1 mM Na ortho-vanadate, 1.0 mM dithiothreitol, 0.5 μM ATP, 10 μg/measurement point histone IIIS, 0.2 μCi/measurement point ^33P-gamma ATP, 0.05% NP40, 1.25% dimethyl sulphoxide] at 22° C. for 10 min. The reaction was stopped by adding EDTA solution (250 mM, pH 8.0, 15 μl/measurement point).
15 μl of each reaction mixture were loaded onto P30 filter strips (from Wallac), and non-incorporated ^33P-ATP was removed by washing the filter strips three times in 0.5% strength phosphoric acid for 10 min each time.
After the filter strips had been dried at 70° C. for 1 hour, the filter strips were covered with scintillator strips (MeltiLex™ A, from Wallac) and baked at 90° C. for 1 hour. The amount of incorporated ^33P (substrate phosphorylation) was determined by scintillation measurement in a gamma radiation counter (Wallac).

In the case of `CCOC(=O)N=S(C)(=O)c1ccc2cc1NCCCCNc1nc(ncc1Br)N2` (racemic) [Example 1, (RS)—S-[1^5-Bromo-2,4,9-triaza-1(2,4)-pyrimidina-3(1,3)-benzenacyclononaphan-3^4-yl]-N-(ethoxycarbonyl)-S-methylsulphoximide], the IC50 (commonly the concentration that gives 50% inhibition) on Chk1 came out at 4.64 µM; against Aurora-C, 0.019 µM; on CDK2/CycE it was 0.323 µM.
For the compound `CCNC(=O)N=S(C)(=O)c1ccc2cc1NCCCCNc1nc(ncc1Br)N2` (racemic) [Example 6, (RS)—S-[1^5-Bromo-2,4,9-triaza-1(2,4)-pyrimidina-3(1,3)-benzenacyclononaphan-3^4-yl]-N-(ethylcarbamoyl)-S-methylsulphoximide], the IC50 against Chk1 amounted to 3.77 µM; on Aurora-C, 0.019 µM; against CDK2/CycE, 0.071 µM.
The matching figures for `C[Si](C)(C)CCS(=O)(=O)N=S(C)(=O)c1ccc2cc1OCCCCNc1nc(ncc1Br)N2` (racemic) [Example 9, (RS)—S-[1^5-Bromo-4-oxa-2,9-diaza-1(2,4)-pyrimidina-3(1,3)-benzenacyclononaphan-3^4-yl]-S-methyl-N-[2-(trimethylsilyl)ethylsulphonyl]sulphoximide]: above 12.5 µM, 0.095 µM and above 1 µM.
The like results for `CCCS(=O)(=O)N=S(C)(=O)c1ccc2cc1NCCCCNc1nc(ncc1Br)N2` (racemic) [Example 7, (RS)—S-[1^5-Bromo-2,4,9-triaza-1(2,4)-pyrimidina-3(1,3)-benzenacyclononaphan-3^4-yl]-S-methyl-N-(propylsulphonyl)sulphoximide] were, in that order, above 20 µM, 0.034 µM and above 1 µM.
The matching figures for `CCCOC(=O)N=S(C)(=O)c1ccc2cc1OCCCCNc1nc(ncc1Br)N2` (racemic) [Example 8, (RS)—S-[1^5-Bromo-4-oxa-2,9-diaza-1(2,4)-pyrimidina-3(1,3)-benzenacyclononaphan-3^4-yl]-S-methyl-N-(propoxycarbonyl)sulphoximide]: above 20 µM, 0.283 µM and above 1 µM.
For `CCOC(=O)N=S(C)(=O)c1ccc2cc1NCCCCNc1nc(ncc1Br)N2` (single isomer, unassigned) [Example 2], the IC50 against Chk1 was found to be 3.63 µM; against Aurora-C it was 0.013 µM; on CDK2/CycE, 0.229 µM.
For `C[Si](C)(C)CCS(=O)(=O)N=S(C)(=O)c1ccc2cc1NCCCCNc1nc(ncc1Br)N2` (racemic) [Example 5, (RS)—S-[1^5-Bromo-2,4,9-triaza-1(2,4)-pyrimidina-3(1,3)-benzenacyclononaphan-3^4-yl]-S-methyl-N-[2-(trimethylsilyl)ethylsulphonyl]sulphoximide], the IC50 on Chk1 is above 20 µM; against Aurora-C it was 0.088 µM; at CDK2/CycE it was above 1 µM.
For the compound `CCOC(=O)N=S(C)(=O)c1ccc2cc1NCCCCNc1nc(ncc1Br)N2` (single isomer, unassigned) [Example 3], the IC50 amounted to 6.84 µM against Chk1, 0.069 µM against Aurora-C and 0.99 µM on CDK2/CycE.
As to `CCOC(=O)N=S(C)(=O)c1ccc2cc1NCCCCNc1nc(ncc1I)N2` (racemic) [Example 4, (RS)—N-(Ethoxycarbonyl)-S-[1^5-iodo-2,4,9-triaza-1(2,4)-pyrimidina-3(1,3)-benzenacyclononaphan-3^4-yl]-S-methylsulphoximide], the results for the IC50 against Chk1, against Aurora-C and against CDK2/CycE were 1.85 µM, 0.024 µM and 0.319 µM, respectively.
